Assay results: patent US11547681B2, “N-acylethanolamide derivatives and uses thereof” (ELIEM THERAPEUTICS, INC., priority 2016, dated 2023)

Assay: in vitro
Settings: for Measured concentration of analyte PEA, 0 min / Measured concentration of analyte PEA, 10 min / Measured concentration of analyte PEA, 20 min / Measured concentration of analyte PEA, 30 min / Measured concentration of analyte PEA, 60 min / % Remaining of Initial, 0 min / % Remaining of Initial, 10 min / % Remaining of Initial, 20 min / % Remaining of Initial, 30 min / % Remaining of Initial, 60 min / microsomal CLint at 1 μM / half-life at 1 μM / Concentration, analyte PEA / % Remaining of Initial (n = 1) / microsomal CLint / half-life: male; for Measured concentration of analyte PEA, 0 min / Measured concentration of analyte PEA, 10 min / Measured concentration of analyte PEA, 20 min / Measured concentration of analyte PEA, 30 min / Measured concentration of analyte PEA, 60 min / % Remaining of Initial, 0 min / % Remaining of Initial, 10 min / % Remaining of Initial, 20 min / % Remaining of Initial, 30 min / % Remaining of Initial, 60 min / Concentration, analyte PEA / % Remaining of Initial (n = 1): 1 μM; for % Remaining of Initial, 0 min / % Remaining of Initial, 10 min / % Remaining of Initial, 20 min / % Remaining of Initial, 30 min / % Remaining of Initial, 60 min / microsomal CLint at 1 μM / half-life at 1 μM / % Remaining of Initial (n = 1) / microsomal CLint / half-life: microsomes
Procedure: (§1) Reaction mixture, minus cofactors, was prepared as described below. Test article was added into the reaction mixture at a final concentration of 1 μM. […] An aliquot of the reaction mixture (without cofactor) was equilibrated in a shaking water bath at 37° C. for 3 minutes. The reaction was initiated by the addition of cofactor, and the mixture was incubated in a shaking water bath at 37° C. Aliquots (100 μL) were withdrawn at 0, 10, 20, 30, and 60 minutes. Test article samples were immediately combined with 300 μL of ice-cold acetonitrile containing 1% formic acid. Control samples were immediately combined with 400 μL of ice-cold 50/50 acetonitrile (ACN)/dH2O containing 0.1% formic acid and internal standard to terminate the reaction. Samples were then mixed and centrifuged to precipitate proteins. Calibration standards were prepared in matched matrix. Samples and standards were assayed by LC-MS/MS using electrospray ionization for both dosed prodrug and expected drug (PEA). Analytical conditions are outlined in Appendix 8-1. Test article concentration at each time point was compared to test article concentration at time 0 to determine the percent remaining at each time point. Half-lives were calculated using GraphPad software, fitting to a single-phase exponential decay equation.
Reaction mixture, minus cofactors, was prepared as described below. Test article was added into the reaction mixture at a final concentration of 1 μM. […] An aliquot of the reaction mixture (without cofactor) was equilibrated in a shaking water bath at 37° C. for 5 minutes. Reaction was initiated by the addition of cofactor, and the mixture was incubated in a shaking water bath at 37° C. Aliquots (100 μL) were withdrawn at 0, 10, 20, 30, and 60 minutes. Test article samples were immediately combined with 300 μL of ice-cold acetonitrile containing 1% formic acid. Control samples were immediately combined with 400 μL of ice-cold 50/50 acetonitrile (ACN)/dH2O containing 0.1% formic acid and internal standard to terminate the reaction. Samples were then mixed and centrifuged to precipitate proteins. Calibration standards were prepared in matched matrix. Samples and standards were assayed by LC-MS/MS using electrospray ionization for both the dosed prodrug and the expected drug (PEA). Analytical conditions are outlined in Appendix 10-1. Test article concentration at each time point was compared to the test article concentration at time 0 to determine the percent remaining at each time point. Half-lives were calculated using GraphPad software, fitting to a single-phase exponential decay equation.
as §1, with “minutes. Reaction” for “minutes. The reaction”, “300 μL,” for “300 μL”, “Appendix 13-1.” for “Appendix 8-1.”
Reaction mixture, minus cofactors, was prepared as described below.

[1] = CD-1, mouse, calculated value in parentheses
[2] = CD-1, mouse, Calculated half-life (in parentheses)

Compound	Measured concentration of analyte PEA, 0 min (Beagle, dog, 0 min)	Measured concentration of analyte PEA, 10 min (Beagle, dog, 10 min)	Measured concentration of analyte PEA, 20 min (Beagle, dog, 20 min)	Measured concentration of analyte PEA, 30 min (Beagle, dog, 30 min)	Measured concentration of analyte PEA, 60 min (Beagle, dog, 60 min)	% Remaining of Initial, 0 min (Beagle, dog, 0 h)	% Remaining of Initial, 10 min (Beagle, dog, 10 min)	% Remaining of Initial, 20 min (Beagle, dog, 20 min)	% Remaining of Initial, 30 min (Beagle, dog, 0.5 h)	% Remaining of Initial, 60 min (Beagle, dog, 1 h)	microsomal CLint at 1 μM (Beagle, dog)	half-life at 1 μM (Beagle, dog, Half-life)	Measured concentration of analyte PEA, 0 min (CD-1, mouse, 0 min)	Measured concentration of analyte PEA, 10 min (CD-1, mouse, 10 min)	Measured concentration of analyte PEA, 20 min (CD-1, mouse, 20 min)	Measured concentration of analyte PEA, 30 min (CD-1, mouse, 30 min)	Measured concentration of analyte PEA, 60 min (CD-1, mouse, 60 min)	% Remaining of Initial, 0 min (CD-1, mouse, 0 h)	microsomal CLint at 1 μM (CD-1, mouse)	half-life at 1 μM (CD-1, mouse, Half-life)	other results
CCCCCCCCCCCCCCCC(=O)NCCOC(=O)CCC [Compound I-2]	0.23 µM	0.48 µM	0.38 µM	0.29 µM	0.17 µM	100%	5.4%	<1.0%	<1.0%	<1.0%	581 µL/min/mg	2.4 min	0.48 µM	0.34 µM	0.19 µM	0.12 µM	0.023 µM	100%	> 1380 µL/min/mg	< 1 min	% Remaining of Initial, 10 min (CD-1, mouse, 10 min): <1.0%; % Remaining of Initial, 20 min (CD-1, mouse, 20 min): <1.0%; % Remaining of Initial, 30 min (CD-1, mouse, 0.5 h): <1.0%; % Remaining of Initial, 60 min (CD-1, mouse, 1 h): <1.0%
CCCCCCCCCCCCCCCC(=O)NCCOC(=O)CCC(=O)OCC(COC(=O)CCCCCCC)OC(=O)CCCCCCC (stereo not shown) [Compound I-3, PEA-Succinate-Glycerol-Di-Caprylic]	0.00074 µM	0.023 µM	0.037 µM	0.042 µM	0.053 µM	100%	94%	85%	85%	74%	< 23.1 µL/min/mg	> 60 min	0.0079 µM	0.025 µM	0.025 µM	0.042 µM	0.025 µM	100%	< 23.1 µL/min/mg	> 60 min	% Remaining of Initial, 10 min (CD-1, mouse, 10 min): 82%; % Remaining of Initial, 20 min (CD-1, mouse, 20 min): 83%; % Remaining of Initial, 30 min (CD-1, mouse, 0.5 h): 60%; % Remaining of Initial, 60 min (CD-1, mouse, 1 h): 70%; microsomal CLint at 1 μM [1]: 13.8 µL/min/mg; half-life at 1 μM [2]: 100 min
CCCCC/C=C\C/C=C\CCCCCCCC(=O)OCCNC(=O)CCCCCCCCCCCCCCC [Compound I-6]	0.030 µM	0.087 µM	0.091 µM	0.080 µM	0.084 µM	100%	103%	100%	91%	77%	< 23.1 µL/min/mg	> 60 min	0.022 µM	0.055 µM	0.039 µM	0.041 µM	0.027 µM	100%	< 23.1 µL/min/mg	> 60 min	% Remaining of Initial, 10 min (CD-1, mouse, 10 min): 84%; % Remaining of Initial, 20 min (CD-1, mouse, 20 min): 74%; % Remaining of Initial, 30 min (CD-1, mouse, 0.5 h): 73%; % Remaining of Initial, 60 min (CD-1, mouse, 1 h): 61%; microsomal CLint at 1 μM [1]: 16.4 µL/min/mg; half-life at 1 μM [2]: 84 min
CCCCCCCCCCCCCCCC(=O)NCCOC(=O)CCC(=O)OC[C@H]1O[C@@](CO)(O[C@H]2O[C@H](CO)[C@@H](O)[C@H](O)[C@H]2O)[C@@H](O)[C@@H]1O [Compound I-7]	0.59 µM	0.50 µM	0.47 µM	0.38 µM	0.20 µM	100%	1.6%	1.4%	1.3%	<1.0%	823 µL/min/mg	1.7 min	0.28 µM	0.29 µM	0.18 µM	0.11 µM	0.034 µM	100%	814 µL/min/mg	1.7 min	% Remaining of Initial, 10 min (CD-1, mouse, 10 min): 1.7%; % Remaining of Initial, 20 min (CD-1, mouse, 20 min): 1.2%; % Remaining of Initial, 30 min (CD-1, mouse, 0.5 h): <1.0%; % Remaining of Initial, 60 min (CD-1, mouse, 1 h): <1.0%
CCCCC/C=C\C/C=C\CCCCCCCC(=O)OCC(COC(=O)CCC(=O)OCCNC(=O)CCCCCCCCCCCCCCC)OC(=O)CCCCCCC/C=C\C/C=C\CCCCC (stereo not shown) [Compound I-13]	–	–	–	–	–	–	–	–	–	–	36.2 µL/min/mg	38 min	–	–	–	–	–	–	29.1 µL/min/mg	48 min	Concentration, analyte PEA (Beagle, dog, 0 min): 0 nM; Concentration, analyte PEA (Beagle, dog, 10 min): 0 nM; Concentration, analyte PEA (Beagle, dog, 20 min): 0 nM; Concentration, analyte PEA (Beagle, dog, 30 min): 0 nM; Concentration, analyte PEA (Beagle, dog, 60 min): 0 nM; % Remaining of Initial (n = 1) (Beagle, dog, 0 h): 100%; % Remaining of Initial (n = 1) (Beagle, dog, 10 min): 78%; % Remaining of Initial (n = 1) (Beagle, dog, 20 min): 76%; % Remaining of Initial (n = 1) (Beagle, dog, 0.5 h): 56%; % Remaining of Initial (n = 1) (Beagle, dog, 1 h): 32%; Concentration, analyte PEA (CD-1, mouse, 0 min): 0 nM; Concentration, analyte PEA (CD-1, mouse, 10 min): 0 nM; Concentration, analyte PEA (CD-1, mouse, 20 min): 0 nM; Concentration, analyte PEA (CD-1, mouse, 30 min): 0 nM; Concentration, analyte PEA (CD-1, mouse, 60 min): 0 nM; % Remaining of Initial (n = 1) (CD-1, mouse, 0 h): 100%; % Remaining of Initial (n = 1) (CD-1, mouse, 10 min): 69%; % Remaining of Initial (n = 1) (CD-1, mouse, 20 min): 75%; % Remaining of Initial (n = 1) (CD-1, mouse, 0.5 h): 54%; % Remaining of Initial (n = 1) (CD-1, mouse, 1 h): 44%
C[C@]12CC[C@H]3[C@@H](CCC4=CC(=O)CC[C@@]43C)[C@@H]1CC[C@@H]2O [Testosterone, testosterone, reference compound]	–	–	–	–	–	–	–	–	–	–	–	–	–	–	–	–	–	–	–	–	Half-life (control compound, mouse liver microsomes): 2.1 min; microsomal CLint (Beagle, Control Compound, Dog liver microsomes): 41.9 µL/min/mg; microsomal CLint (Beagle, Control compound, Dog liver microsomes): 41.5 µL/min/mg; microsomal CLint (Beagle, Dog liver microsomes, control compound): 41.9 µL/min/mg; microsomal CLint (Beagle, control compound, dog liver microsomes): 59.3 µL/min/mg; half-life (Beagle, Half-life, Control Compound, Dog liver microsomes): 33 min; half-life (Beagle, Half-life, Control compound, Dog liver microsomes): 33 min; half-life at 1 μM (Beagle, Half-life, Dog liver microsomes): 33 min; half-life (Beagle, Half-life, control compound, dog liver microsomes): 23 min; microsomal CLint (CD-1, mouse, Control Compound, Mouse liver microsomes): 444 µL/min/mg; microsomal CLint (CD-1, mouse, Mouse liver microsomes, control compound): 190 µL/min/mg; microsomal CLint (CD-1, mouse, control compound, mouse liver microsomes): 674 µL/min/mg; half-life (CD-1, mouse, Half-life, Control Compound, Mouse liver microsomes): 3.1 min; half-life (CD-1, mouse, Half-life, Control compound, Mouse liver microsomes): 4.9 min; half-life at 1 μM (CD-1, mouse, Half-life, Mouse liver microsomes): 7.3 min
